Here are results for seven compounds from paper PMC5382265, “Macrocycle peptides delineate locked-open inhibition mechanism for microorganism phosphoglycerate mutases” (Nature Communications, 2017).

Read-outs that look alike come from different tables or passages of the source. Positions of bridges follow the written chain, without caps; N, C: chain ends. Non-standard residues stand in square brackets, D forms with d. Residues, ends and D or L forms follow the SMILES beside them.

Assay [1] deals with E. coli cofactor-independent phosphoglycerate mutase (iPGM) (E. coli) (UniProt P37689).
Assay [2] deals with iPGM orthologues and dPGM isozymes. The assay is classed as biochemical.
A further assay deals with T1, C. elegans iPGM (Caenorhabditis elegans, UniProt G5EFZ1).
T1 sequence (G5EFZ1 1-539): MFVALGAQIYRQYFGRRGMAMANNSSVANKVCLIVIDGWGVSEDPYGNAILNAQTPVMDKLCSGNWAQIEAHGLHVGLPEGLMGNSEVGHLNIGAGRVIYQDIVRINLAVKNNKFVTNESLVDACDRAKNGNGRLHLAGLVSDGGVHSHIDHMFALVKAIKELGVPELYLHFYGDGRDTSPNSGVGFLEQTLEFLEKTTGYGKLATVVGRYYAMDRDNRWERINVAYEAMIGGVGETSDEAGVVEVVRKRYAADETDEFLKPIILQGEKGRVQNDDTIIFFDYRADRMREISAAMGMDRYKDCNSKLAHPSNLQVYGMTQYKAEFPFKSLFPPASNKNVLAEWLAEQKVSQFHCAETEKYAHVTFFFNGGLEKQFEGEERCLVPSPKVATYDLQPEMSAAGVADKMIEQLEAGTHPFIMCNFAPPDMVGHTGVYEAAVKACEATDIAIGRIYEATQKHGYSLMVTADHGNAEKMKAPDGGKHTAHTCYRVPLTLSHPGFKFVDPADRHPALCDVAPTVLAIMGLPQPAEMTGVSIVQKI
In words: PGM enzyme-coupled bioluminescent end point assay (Kinase-Glo Plus). The assay is classed as biochemical. A general note: Kinase-Glo measures the ATP left after a reaction by luminescence.

The next assay has as its target B. malayi iPGM (Brugia malayi, UniProt Q4VWF8). In words: biochemical.
Assay [3] has as its target T2, E. coli iPGM (Escherichia coli, UniProt P37689). As to the kind of experiment: biochemical.
Another assay deals with O. volvulus iPGM (Onchocerca volvulus, UniProt I6LDA6). In words: biochemical. The conditions noted are these: pIC50, apparent O. volvulus iPGM.
The target of assay [4] is T2, E. coli iPGM. In words: biochemical. The source holds these as a separate data set.
The target in another assay is H. sapiens dPGM (Homo sapiens, UniProt P18669). In words: Gradient elution moving boundary electrophoresis (GEMBE) assay. In kind it is biochemical. The conditions noted are these: 2.1 nM H. sapiens dPGM.
The mark [5] stands for this setting: pIC50, apparent C. elegans iPGM.

T2 sequence (P37689 whole entry, looked up): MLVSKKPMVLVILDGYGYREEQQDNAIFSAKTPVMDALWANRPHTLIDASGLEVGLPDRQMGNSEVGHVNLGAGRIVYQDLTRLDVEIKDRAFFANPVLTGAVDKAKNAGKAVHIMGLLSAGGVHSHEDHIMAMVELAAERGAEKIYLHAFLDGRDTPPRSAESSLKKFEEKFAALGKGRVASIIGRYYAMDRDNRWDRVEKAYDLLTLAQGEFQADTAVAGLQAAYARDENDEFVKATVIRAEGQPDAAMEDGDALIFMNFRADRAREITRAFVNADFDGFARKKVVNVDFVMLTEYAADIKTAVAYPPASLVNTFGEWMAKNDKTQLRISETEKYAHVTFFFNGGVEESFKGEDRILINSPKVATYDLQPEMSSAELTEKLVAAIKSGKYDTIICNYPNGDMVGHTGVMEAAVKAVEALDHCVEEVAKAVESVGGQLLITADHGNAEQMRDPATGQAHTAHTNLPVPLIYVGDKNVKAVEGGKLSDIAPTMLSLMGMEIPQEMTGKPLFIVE
B. malayi iPGM, sequence (Q4VWF8 whole entry, looked up): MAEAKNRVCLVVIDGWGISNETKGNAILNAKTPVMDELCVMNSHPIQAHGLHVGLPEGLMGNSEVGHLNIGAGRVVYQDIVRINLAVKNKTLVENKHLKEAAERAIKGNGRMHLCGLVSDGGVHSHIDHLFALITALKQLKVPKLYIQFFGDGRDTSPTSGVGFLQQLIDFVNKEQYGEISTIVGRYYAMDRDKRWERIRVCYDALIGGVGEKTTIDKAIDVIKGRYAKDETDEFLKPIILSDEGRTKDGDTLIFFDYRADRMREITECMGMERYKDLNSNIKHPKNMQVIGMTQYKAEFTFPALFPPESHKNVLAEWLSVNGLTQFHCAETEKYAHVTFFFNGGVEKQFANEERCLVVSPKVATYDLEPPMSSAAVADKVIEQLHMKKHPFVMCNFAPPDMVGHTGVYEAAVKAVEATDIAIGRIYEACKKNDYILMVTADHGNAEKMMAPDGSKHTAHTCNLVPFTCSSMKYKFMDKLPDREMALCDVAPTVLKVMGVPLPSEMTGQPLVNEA
O. volvulus iPGM, sequence (I6LDA6 whole entry, looked up): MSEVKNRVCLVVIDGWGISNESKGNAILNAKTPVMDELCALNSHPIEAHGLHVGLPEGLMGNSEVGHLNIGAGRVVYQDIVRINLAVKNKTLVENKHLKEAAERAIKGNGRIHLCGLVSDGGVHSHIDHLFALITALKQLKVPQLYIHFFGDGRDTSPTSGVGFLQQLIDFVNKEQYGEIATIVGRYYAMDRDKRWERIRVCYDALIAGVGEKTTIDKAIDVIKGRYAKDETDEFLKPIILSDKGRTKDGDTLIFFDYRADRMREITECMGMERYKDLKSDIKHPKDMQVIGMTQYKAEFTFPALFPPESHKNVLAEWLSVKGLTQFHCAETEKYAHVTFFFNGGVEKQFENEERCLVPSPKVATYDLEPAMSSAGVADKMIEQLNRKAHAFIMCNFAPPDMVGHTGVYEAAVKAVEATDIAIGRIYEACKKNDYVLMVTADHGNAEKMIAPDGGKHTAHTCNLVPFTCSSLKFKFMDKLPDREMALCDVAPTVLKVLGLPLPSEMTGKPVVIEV
H. sapiens dPGM, sequence (P18669 whole entry): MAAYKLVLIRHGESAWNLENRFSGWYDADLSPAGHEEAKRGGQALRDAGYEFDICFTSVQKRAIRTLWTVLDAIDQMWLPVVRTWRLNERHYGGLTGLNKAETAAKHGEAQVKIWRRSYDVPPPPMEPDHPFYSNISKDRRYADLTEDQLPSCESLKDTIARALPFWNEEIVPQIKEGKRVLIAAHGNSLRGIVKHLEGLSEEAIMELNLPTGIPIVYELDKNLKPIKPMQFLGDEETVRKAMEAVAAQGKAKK
E. coli cofactor-independent phosphoglycerate mutase (iPGM) (E. coli), sequence (P37689 whole entry): as the sequence (P37689 whole entry, looked up) above

In assay [1], Ce-2S (Ce-2 with Cys14Ser) (peptide) yielded an IC50 of inhibition of PGM activity, enzyme-coupled bioluminescent assay of 0.01 µM.
The term IC50 denotes the point on the concentration scale where inhibition reaches its midpoint. `CC(C)C[C@H](NC(=O)[C@H](Cc1ccc(O)cc1)NC(=O)[C@@H]1CSCC(=O)N[C@H](Cc2ccc(O)cc2)C(=O)N[C@@H](CC(=O)O)C(=O)N[C@@H](Cc2ccc(O)cc2)C(=O)N2CCC[C@H]2C(=O)NCC(=O)N[C@@H](CC(=O)O)C(=O)N[C@@H](Cc2ccc(O)cc2)C(=O)N1)C(N)=O` [Ce-2e] ({CH2CO}-[dY]DYPGDYCYL-NH2; thioether N-8) returned a potency decrease in assay [2] of about 100 fold. Further, the IC50 at C. elegans iPGM (pIC50 C. elegans iPGM) is 0.0692 µM; against B. malayi iPGM (pIC50 B. malayi iPGM) it was 2.95 µM; against E. coli iPGM [3] (pIC50 E. coli iPGM), 0.0537 µM.
With “^Ac-DYDYPGDYSYLY-NH2 [Ce-L2d, linear form of Ce-2d]”, the “inhibitory activity on the PGM panel, in words” value in assay [2] is “completely inactive on all iPGMs”.
Consider `C[C@@H](O)[C@H](NC(=O)[C@H](CO)NC(=O)[C@@H]1CSCC(=O)N[C@H](Cc2ccc(O)cc2)C(=O)N2CCC[C@H]2C(=O)N[C@@H](CCC(=O)O)C(=O)N[C@@H](Cc2c[nH]c3ccccc23)C(=O)N2CCC[C@H]2C(=O)N[C@@H](CC(N)=O)C(=O)N1)C(=O)N[C@@H](CS)C(=O)NCC(N)=O` [Bm-6] ({CH2CO}-[dY]PEWPNCSTCG-NH2; thioether N-7), for which the IC50 on C. elegans iPGM (setting [5]) is 2.63 µM; at O. volvulus iPGM, 0.832 µM; on B. malayi iPGM (pIC50, apparent B. malayi iPGM), 0.692 µM; at E. coli iPGM [3] (pIC50, apparent E. coli iPGM), 2.82 µM.
As for `CC(C)C[C@@H]1NC(=O)[C@@H](Cc2ccc(O)cc2)NC(=O)CSC[C@@H](C(=O)N[C@@H](CC(N)=O)C(=O)N[C@H](C(=O)N[C@@H](CS)C(=O)NCC(N)=O)[C@@H](C)O)NC(=O)[C@H](CC(N)=O)NC(=O)[C@@H]2CCCN2C(=O)[C@H](Cc2c[nH]c3ccccc23)NC(=O)[C@H](CCC(=O)O)NC1=O` [Bm-4] ({CH2CO}-[dY]LEWPNCNTCG-NH2; thioether N-7), the IC50 at C. elegans iPGM (setting [5]) was 2.45 µM; at O. volvulus iPGM, 0.794 µM; on B. malayi iPGM (pIC50, apparent B. malayi iPGM) it was 0.575 µM; on E. coli iPGM [3] (pIC50, apparent E. coli iPGM), 2.75 µM.
On to `CC(C)C[C@H](NC(=O)[C@H](Cc1ccc(O)cc1)NC(=O)[C@@H]1CSCC(=O)N[C@H](Cc2ccc(O)cc2)C(=O)N[C@@H](CC(=O)O)C(=O)N[C@@H](Cc2ccc(O)cc2)C(=O)N2CCC[C@H]2C(=O)NCC(=O)N[C@@H](CC(=O)O)C(=O)N[C@@H](Cc2ccc(O)cc2)C(=O)N1)C(=O)N[C@@H](Cc1ccc(O)cc1)C(=O)NCC(=O)N[C@H](C(=O)N[C@@H](CS)C(=O)NCC(N)=O)[C@@H](C)O` [Ce-2], for which the IC50 is 0.00224 µM at C. elegans iPGM (setting [5]); 0.000251 µM at C. elegans iPGM (pIC50 C. elegans iPGM); 0.00324 µM at E. coli iPGM [4]; 0.00166 µM at E. coli iPGM [3] (pIC50, apparent E. coli iPGM); 0.00055 µM at E. coli iPGM [3] (pIC50 E. coli iPGM). For the same compound, the “pIC50 from the GEMBE assay” value at H. sapiens dPGM was “no apparent activity”.
`CC(C)C[C@@H]1NC(=O)[C@@H](Cc2ccc(O)cc2)NC(=O)CSC[C@@H](C(=O)N[C@@H](CO)C(=O)N[C@H](C(=O)N[C@@H](CS)C(=O)NCC(N)=O)[C@@H](C)O)NC(=O)[C@H](CC(N)=O)NC(=O)[C@@H]2CCCN2C(=O)[C@H](Cc2c[nH]c3ccccc23)NC(=O)[C@H](CC(=O)O)NC1=O` [Bm-5] ({CH2CO}-[dY]LDWPNCSTCG-NH2; thioether N-7): the IC50 on C. elegans iPGM (setting [5]) is 2.51 µM; on O. volvulus iPGM, 1.02 µM; on B. malayi iPGM (pIC50, apparent B. malayi iPGM) it was 0.692 µM; on E. coli iPGM [3] (pIC50, apparent E. coli iPGM), 2.88 µM.
